Earlier results as cited in patent publication US7795231B2, “Concentrated aqueous azalide formulations” (Insite Vision Incorporated, priority 2007, dated 2010).
Where a name gives a salt, the structure may show the parent alone.

water solubility (in words): good water solubility
SMILES: CC[C@H]1OC(=O)[C@H](C)[C@@H](O[C@H]2C[C@@](C)(OC)[C@@H](O)[C@H](C)O2)[C@H](C)[C@@H](O[C@@H]2O[C@H](C)C[C@H](N(C)C)[C@H]2O)[C@](C)(O)C[C@@H](C)CN(C)[C@H](C)[C@@H](O)[C@]1(C)O [azithromycin dihydrochloride]
